Laboratory results: PMC2736896 (2009)

Target: bilitranslocase (BTL) homologue
Test: inhibition of electrogenic BSP uptake into pulp microsomes, spectrophotometric
Assay type: biochemical, Vitis vinifera

| SMILES | Ki |
| --- | --- |
| O=c1c(O)c(-c2ccc(O)c(O)c2)oc2cc(O)cc(O)c12 [quercetin] | 97.5 µM |
| O=C1C[C@@H](c2ccc(O)c(O)c2)Oc2cc(O)cc(O)c21 [eriodictyol] | 75.8 µM |
